Entries after “also recorded” stand apart in the source; their conditions may differ.
Columns and labels:
[1] = test system: rat thoracic aorta; test: Contractile curves to noradrenaline in rat isolated aortic rings (Protocol 1); conditions: for dose dependency of the antagonising action on noradrenaline contraction: 0.1 and 1 μg/ml; for antagonising the contractile response to noradrenaline (in words): order of potency at 1 μg/ml; for y max, Noradrenaline + Test compound (B): mean ± SEM; for y max Difference (A − B): noradrenaline alone minus noradrenaline + compound
Protocol: Male Sprague-Dawley rats (250±50 g) were gassed with 80% CO2 and 20% O2 until killed. The thoracic aorta was excised and quickly placed in ice-cold Krebs modified solution composed of NaCl […], […] 4.7 mM, MgSO4 7H2O 1.17 mM, NaHCO3 25 mM, KH2PO4 1.18 mM, CaCl2 2.5 mM, glucose 11 mM and EDTA 0.03 mM. It was then trimmed of fat and connective tissue and cut into 2-3 mm wide rings. Each ring was mounted on two parallel stainless steel hooks in a single water-jacketed 3 ml organ bath containing modified Krebs solution maintained at 37° C. and bubbled with 95% O2 plus 5% CO2. The lower hook was attached to a movable support leg and the upper hook to an FTO3 force transducer (Grass Scientific Instruments, Mitutoyo, Japan) for isometric recordings. Changes in force were amplified (Quadbridge amplifier, Scientific Concepts Inc., Victoria, Australia) and recorded on a MacLab 8E data acquisition system (Adinstruments Pty Ltd., NSW, Australia) linked to an Apple computer (Apple Computer Inc, Cupertina, Calif.). Rings were set at an initial tension of 2 g and allowed to equilibrate for 30 minutes after which time they were re-set to 2 g tension before the commencement of each experimental protocol.
Full concentration-contractile curves were obtained to noradrenaline (0.1 nM-[…]) in the absence and presence of β-estradiol (1 μg/ml); Cpd. 5 (0.1 and 1 μg/ml); Cpd. 7 (0.1 and 1 μg/ml); Cpd. 8 (0.1 and 1 μg/ml) and Cpd. 12 (1 μg/ml) and the vehicle equi-volume DMSO. Only one compound at any one concentration was tested on any one ring from any one animal.
Contractile responses are expressed in g tension (mean+standard error of the mean). Dilatory responses are expressed as a percentage of the contractile force generated by the pre-constricting agent used. Individual concentration-response curves for noradrenaline and acetylcholine±the interventions used were fitted to a logistic equation of the form […] where E is the response, M is the maximum response and K is the concentration eliciting 50% of the maximum response (ie neg log EC50).

[2] = Peroxyl radical scavenging, AAPH-induced oxidation of linoleate; format: biochemical; set-up: dose or concentration left out as unconfirmed
Protocol: Peroxyl radicals are natural side-products of a number of enzymes, including lipoxygenases and cyclo-oxygenase. Peroxyl radicals were generated by the thermo-labile azo-initiator AAPH. AAPH-induced oxidation of linoleate was performed as described previously (Pryor et al., 1993), except that a lower linoleate concentration was used and SDS was omitted. An aliquot of a linoleate stock solution was added to PBS at 37° C. to give a final concentration of […]. Oxidation was initiated by the addition of AAPH (87.5 mM final concentration) in the absence and presence of either 10 mM of Cpd. 7, Cpd. 8 or Cpd. 12 or 500 mM ascorbate (positive control). Formation of linoleate hydroperoxide was monitored by UV 234 nm using a Perkin Elmer's UV/Vis Lambda 40 spectrophotometer. The test was performed twice as single analysis. An appropriate concentration of alcohol (ethanol and isopropanol; 0.13%-0.2% v/v) was included in the respective control samples.

[3] = test system: horseradish peroxidase (HRP) plus hydrogen peroxide (H2O2); test: Peroxidase-induced (HRP/H2O2) oxidation of linoleate; format: biochemical, horse radish; set-up: dose or concentration left out as unconfirmed
Text: The test is similar to the peroxyl scavenging described in section 4.5 above, except that horseradish peroxidase (HRP) plus hydrogen peroxide (H2O2), were used instead of the peroxyl radical generator. Increased level of heme is considered as a potential risk factor for atherosclerosis, and heme-containing proteins may be involved in the oxidative modification of LDL. In the presence of H2O2, heme proteins give rise to a powerful oxidant (referred to as compound I) that can oxidatively modify lipids, including those in LDL. We therefore tested the ability of the isoflavone to inhibit such lipid oxidation using horse radish peroxidase as the model heme protein. HRP/H2O2-induced oxidation of linoleate was as described principally by Witting et al (1997) by replacing LDL with linoleate. Linoleate stock was added to PBS at 37° C. to give a final concentration of 300 mM and oxidized by HRP (40 U/mL)/H2O2 (2 mM) in the absence and presence of either 10 mM of Cpd. 7, Cpd. 8 or Cpd. 12, or 25 mM BHT (positive control). Formation of linoleate hydroperoxide was monitored by UV 234 nm using the Perkin Elmer's UV/Vis Lambda 40 spectrophotometer. The test was performed twice as single analysis. An appropriate concentration of alcohol (ethanol and isopropanol; 0.13% -0.2% v/v) was included in the respective control samples.

[4] = test system: LDL; test: LDL antioxidation test (CuCl2-initiated LDL oxidation, lag time); format: biochemical, human; conditions: Table 3, 10 μM; for Lag Time: control 20 min

SMILES	dose dependency of the antagonising action on noradrenaline contraction [1]	antagonising the contractile response to noradrenaline (in words) [1]	y max, Noradrenaline + Test compound (B) ([1]; test compound 0.1 μg/ml)	y max Difference (A − B) ([1]; test compound 0.1 μg/ml)	y max, Noradrenaline + Test compound (B) ([1]; test compound 1 μg/ml)	y max Difference (A − B) ([1]; test compound 1 μg/ml)	inhibition of AAPH-induced oxidation of linoleic acid, 234 nm absorbency (in words) [2]	inhibition of linoleic acid oxidation by HRP/H2O2 compound I (in words) [3]	% Increase in Time [4]	Lag Time [4]
Oc1ccc(C2COc3cc(O)ccc3C2O)cc1 (centres unmarked) [Cpd. 7]	dose dependent	active but less potent than β-estradiol; also recorded: equipotent but less potent than Cpd. 12	1.41 ± 0.13 g tension	0.25 ± 0.25 g tension	1.26 ± 0.34 g tension	1.38 ± 0.27 g tension	As for peroxyl radicals, neither Cpd. 7 nor Cpd. 8 were able to inhibit	able to inhibit linoleic acid oxidation by compound I as effectively as 25 mM BHT	100%	50 min
O=C1c2ccc(O)cc2OCC1c1ccc(O)cc1 (centres unmarked) [Cpd. 5]	dose dependent	active but less potent than β-estradiol; also recorded: equipotent but less potent than Cpd. 12	1.50 ± 0.32 g tension	0.81 ± 0.25 g tension	1.13 ± 0.20 g tension	1.02 ± 0.24 g tension			0%	20 min
Oc1ccc(C2COc3cc(O)ccc3C2O)cc1 (centres unmarked) [Cpd. 8]	dose dependent	active but less potent than β-estradiol; also recorded: the least potent	1.34 ± 1.20 g tension	0.56 ± 0.15 g tension	0.86 ± 0.31 g tension	0.69 ± 0.28 g tension	As for peroxyl radicals, neither Cpd. 7 nor Cpd. 8 were able to inhibit	able to inhibit linoleic acid oxidation by compound I as effectively as 25 mM BHT	>600%	>140 min
Oc1ccc(C2=Cc3ccc(O)cc3OC2)cc1 [Cpd. 12]		comparable to β-estradiol; also recorded: most effective and comparable to 170-estradiol			0.80 ± 0.36 g tension	2.27 ± 0.68 g tension	significantly inhibited the time-dependent increase in 234 nm absorbency	inhibitory activity of Cpd. 7 and Cpd. 8 was greater than of an equimolar amount of Cpd. 12	>600%	>140 min

From US20050119301A1, “Treatment of restenosis” (priority 2001, published 2005)
